Laboratory results reported in patent US20250057790A1, “AN INJECTABLE PHARMACEUTICAL COMPOSITION FOR THE TREATMENT OF RESPIRATORY DISEASES IN ANIMALS” (priority 2021, published 2025).

How the values were obtained:
[1] = system: microbes that cause respiratory disease in animals; assay: Activity against the microbes that cause respiratory disease in animals (statement); type: cell-based
[2] = Injection site reactions in cattle; type: in vivo; conditions: injectable pharmaceutical compositions
Experimental: Cattle injected with injectable pharmaceutical compositions containing Compound (A) were evaluated for reactions at the injection site. These injection site reactions were compared to the injection site reactions of cattle injected with injectable pharmaceutical compositions containing Compounds (B) and (C). The compounds were formulated as aqueous solution injectable pharmaceutical compositions or as suspension injectable pharmaceutical compositions as indicated below. These formulations were prepared as described in Examples 1 and 2. Compound (A) was formulated as both an aqueous solution using the free base form of the compound and as a suspense using the dihydrochloride salt of the compound. The composition of the aqueous solution injectable pharmaceutical composition was 15% w/v of Compound A, 15% w/v Poloxamer […], 6% w/v Benzyl Alcohol, 7% w/v Citric Acid, and QS Water. The composition of the suspension injectable pharmaceutical composition was 15% w/v Compound A (17.5% w/v HCl salt of Compound A), 0.1% w/v Kolliphor HS 15 and QS Miglyol 812. Compound A was administered to the animals in a dose of 10 mg/kilogram of body weight. Compound (B) was formulated as both an aqueous solution using the free base form of the compound and as a suspense using the dihydrochloride salt of the compound. The composition of the aqueous solution injectable pharmaceutical composition was 15% w/v of Compound B, 15% w/v Poloxamer […], 6% w/v Benzyl Alcohol, 7% w/v Citric Acid, and QS Water. The composition of the suspension injectable pharmaceutical composition was 15% w/v Compound B (17.5% w/v HCl salt of Compound B), 0.1% w/v Kolliphor HS 15 and QS Miglyol 812. Compound A was administered to the animals in a dose of 10 mg/kilogram of body weight. Compound (C) was formulated as both an aqueous solution using the free base form of the compound. The composition of the aqueous solution injectable pharmaceutical composition was 10% w/v of Compound C, 15% w/v Poloxamer […], 6% w/v Benzyl Alcohol, 7% w/v Citric Acid, and QS Water. Compound A was administered to the animals in a dose of 10 mg/kilogram of body weight. Injection sites were examined clinically by a trained person, Size of the swelling is measured with a ruler to the closest 0.5 cm horizontally, vertical and depth. These three measured values were multiplied to an estimation of the volume of the square box surrounding the observed swelling.

Row | Compound | Activity against the microbes that cause respiratory disease in animals [1] | Injection site reactions, overall assessment [2] | Injection site reactions, overall assessment ([2]; listed as Compound (B)) | Injection site reactions, overall assessment ([2]; listed as Compound (C))
1 | CC(C)(N)[C@H](NC(=O)c1ccc(C#Cc2ccc(CNC3CC3)cc2)cc1)C(=O)NO [Compound B] | active against the microbes that cause respiratory disease in animals | not resolved during the duration of the study | unacceptable injection site reactions | 
2 | CC(C)(N)[C@H](NC(=O)c1ccc(C#Cc2ccc(CNCC(F)(F)F)cc2)cc1)C(=O)NO [Compound C] | active against the microbes that cause respiratory disease in animals | not resolved during the duration of the study |  | unacceptable injection site reactions
